Assay results reported in PubChem BioAssay (NCI).
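Following 48 hours of exposure in 96-well plates, responses at five concentrations were used to interpolate endpoints linearly. The concentration for 50% growth inhibition is given as GI50. TGI is the concentration that stops growth completely.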

What was measured:
Assay in all cases: inhibition of tumour cell growth, NCI panel, 48 h
NCI-H23 lung = tested on: NCI-H23 lung
NCI-H460 lung = tested on: NCI-H460 lung
NCI/ADR-RES ovarian = tested on: NCI/ADR-RES ovarian
OVCAR-3 ovarian = tested on: OVCAR-3 ovarian
OVCAR-4 ovarian = tested on: OVCAR-4 ovarian
OVCAR-5 ovarian = tested on: OVCAR-5 ovarian
OVCAR-8 ovarian = tested on: OVCAR-8 ovarian
PC-3 prostate = tested on: PC-3 prostate
RPMI-8226 leukemia = tested on: RPMI-8226 leukemia
RXF 393 renal = tested on: RXF 393 renal
SF-268 CNS = tested on: SF-268 CNS
SF-295 CNS = tested on: SF-295 CNS
SF-539 CNS = tested on: SF-539 CNS
SK-MEL-2 melanoma = tested on: SK-MEL-2 melanoma
SK-MEL-28 melanoma = tested on: SK-MEL-28 melanoma
SK-MEL-5 melanoma = tested on: SK-MEL-5 melanoma
SK-OV-3 ovarian = tested on: SK-OV-3 ovarian
SN12C renal = tested on: SN12C renal
SNB-19 CNS = tested on: SNB-19 CNS
SNB-75 CNS = tested on: SNB-75 CNS
SW-620 colon = tested on: SW-620 colon
T-47D breast = tested on: T-47D breast
TK-10 renal = tested on: TK-10 renal
U251 CNS = tested on: U251 CNS
UACC-257 melanoma = tested on: UACC-257 melanoma
UACC-62 melanoma = tested on: UACC-62 melanoma
UO-31 renal = tested on: UO-31 renal

**Q.** Which GI50 (NCI-H23 lung) does the source give for `Ic1ccc2[nH]cc(SSc3c[nH]c4ccc(I)cc34)c2c1` here?
**A.** 2.36 µM

**Q.** And the TGI (NCI-H23 lung)?
**A.** 7.96 µM

**Q.** And the GI50 (NCI-H460 lung)?
**A.** 2.41 µM

**Q.** And the TGI (NCI-H460 lung)?
**A.** 6.52 µM

**Q.** What about the GI50 (NCI/ADR-RES ovarian) of the same compound?
**A.** 2.57 µM

**Q.** What about the TGI (NCI/ADR-RES ovarian) of the same compound?
**A.** 7.13 µM

**Q.** What about the GI50 (OVCAR-3 ovarian) of the same compound?
**A.** 1.73 µM

**Q.** And the TGI (OVCAR-3 ovarian)?
**A.** 5.56 µM

**Q.** And the GI50 (OVCAR-4 ovarian)?
**A.** 3.02 µM

**Q.** What about the TGI (OVCAR-4 ovarian) of the same compound?
**A.** 16.6 µM

**Q.** What about the GI50 (OVCAR-5 ovarian) of the same compound?
**A.** 2.38 µM

**Q.** What about the TGI (OVCAR-5 ovarian) of the same compound?
**A.** 6.11 µM

**Q.** And the GI50 (OVCAR-8 ovarian)?
**A.** 3.77 µM

**Q.** And the TGI (OVCAR-8 ovarian)?
**A.** 17.8 µM

**Q.** What about the GI50 (PC-3 prostate) of the same compound?
**A.** 0.492 µM

**Q.** What about the TGI (PC-3 prostate) of the same compound?
**A.** 4.65 µM

**Q.** And the GI50 (RPMI-8226 leukemia)?
**A.** 1.78 µM

**Q.** And the TGI (RPMI-8226 leukemia)?
**A.** 5.5 µM

**Q.** What about the GI50 (RXF 393 renal) of the same compound?
**A.** 1.5 µM

**Q.** And the TGI (RXF 393 renal)?
**A.** 5.68 µM

**Q.** What about the GI50 (SF-268 CNS) of the same compound?
**A.** 2.99 µM

**Q.** And the TGI (SF-268 CNS)?
**A.** 10.9 µM

**Q.** What about the GI50 (SF-295 CNS) of the same compound?
**A.** 1.89 µM

**Q.** And the TGI (SF-295 CNS)?
**A.** 4.69 µM

**Q.** And the GI50 (SF-539 CNS)?
**A.** 2.39 µM

**Q.** What about the TGI (SF-539 CNS) of the same compound?
**A.** 9.29 µM

**Q.** And the GI50 (SK-MEL-2 melanoma)?
**A.** 2.3 µM

**Q.** What about the TGI (SK-MEL-2 melanoma) of the same compound?
**A.** 6.96 µM

**Q.** What about the GI50 (SK-MEL-28 melanoma) of the same compound?
**A.** 3.36 µM

**Q.** And the TGI (SK-MEL-28 melanoma)?
**A.** 12.6 µM

**Q.** And the GI50 (SK-MEL-5 melanoma)?
**A.** 3.18 µM

**Q.** What about the TGI (SK-MEL-5 melanoma) of the same compound?
**A.** 13.5 µM

**Q.** What about the GI50 (SK-OV-3 ovarian) of the same compound?
**A.** 3.46 µM

**Q.** And the TGI (SK-OV-3 ovarian)?
**A.** 11.7 µM

**Q.** And the GI50 (SN12C renal)?
**A.** 2.86 µM

**Q.** What about the TGI (SN12C renal) of the same compound?
**A.** 11 µM

**Q.** What about the GI50 (SNB-19 CNS) of the same compound?
**A.** 3.25 µM

**Q.** What about the TGI (SNB-19 CNS) of the same compound?
**A.** 11.9 µM

**Q.** And the GI50 (SNB-75 CNS)?
**A.** 2.36 µM

**Q.** What about the TGI (SNB-75 CNS) of the same compound?
**A.** 9.28 µM

**Q.** What about the GI50 (SW-620 colon) of the same compound?
**A.** 2.74 µM

**Q.** What about the TGI (SW-620 colon) of the same compound?
**A.** 10.5 µM

**Q.** And the GI50 (T-47D breast)?
**A.** 2.68 µM

**Q.** And the TGI (T-47D breast)?
**A.** 11.2 µM

**Q.** What about the GI50 (TK-10 renal) of the same compound?
**A.** 2.88 µM

**Q.** And the TGI (TK-10 renal)?
**A.** 10.1 µM

**Q.** What about the GI50 (U251 CNS) of the same compound?
**A.** 2.25 µM

**Q.** And the TGI (U251 CNS)?
**A.** 10.1 µM

**Q.** What about the GI50 (UACC-257 melanoma) of the same compound?
**A.** 2.79 µM

**Q.** And the TGI (UACC-257 melanoma)?
**A.** 6.74 µM

**Q.** What about the GI50 (UACC-62 melanoma) of the same compound?
**A.** 2.7 µM

**Q.** What about the TGI (UACC-62 melanoma) of the same compound?
**A.** 11.5 µM

**Q.** And the GI50 (UO-31 renal)?
**A.** 3.06 µM

**Q.** What about the TGI (UO-31 renal) of the same compound?
**A.** 17.3 µM
